Experimental data from the supplement of paper PMC10949913.

Key:
Details in all cases: 48 h
NCI-H295R [1] = experiment: area under concentration-response curve (viability) (AUC (a.u.)); higher = less active
How it was run: (§1)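 Luminescence from CellTiter-Glo, read after 48 h, measured three adrenocortical carcinoma cell lines treated in 1,536-well plates with library compounds at 11 concentrations. Values were normalised per plate to vehicle and empty-well controls. The AC50 and area under the curve come from fitted concentration-response curves in inhibitory or non-responding classes only.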

CU-ACC1 [2] = experiment: as above
How it was run: as §1

CU-ACC2 [3] = experiment: as above
How it was run: as §1

NCI-H295R [4] = experiment: AC50 viability; higher = less potent
How it was run: as §1

CU-ACC1 [5] = experiment: AC50 viability; higher = less potent
How it was run: as §1

CU-ACC2 [6] = experiment: AC50 viability; higher = less potent
How it was run: as §1

| SMILES | area under concentration-response curve (NCI-H295R [1]) | area under concentration-response curve (CU-ACC1 [2]) | area under concentration-response curve (CU-ACC2 [3]) | AC50 viability (NCI-H295R [4]) [µM] | AC50 viability (CU-ACC1 [5]) [µM] | AC50 viability (CU-ACC2 [6]) [µM] |
| --- | --- | --- | --- | --- | --- | --- |
| COc1cc(C)c(Sc2cnc(NC(=O)c3ccc(CNC(C)C(C)C)cc3)s2)cc1C(=O)N1CCN(C(C)=O)CC1 (configuration not stated) | 478 | 466 | 527 | 14.8 | 37.2 | 16.6 |
| CNC(=O)c1cc(Oc2ccc(NC(=O)Nc3ccc(Cl)c(C(F)(F)F)c3)cc2)ccn1 | 539 | 518 | 521 | 18.6 | 18.6 | 23.5 |
| O=C(Nc1ncc(SCCN2CCCC2)s1)[C@]1(c2ccc([S+](=O)([O-])C3CC3)cc2)C[C@H]1C1CCCCC1 | 437 | 442 | 507 | 10.5 | 13.2 | 26.3 |
| C[N]1C=NC=C1C(N)(C2=CC=C(Cl)C=C2)C3=CC\4=C(C=C3)N(C)C(=O)\C=C4C5=CC(=CC=C5)Cl (configuration not stated) | 397 | 336 | 298 | 6.61 | 11.8 | 11.8 |
| C[C@@]12O[C@@H](C[C@]1(O)CO)n1c3ccccc3c3c4c(c5c6ccccc6n2c5c31)CNC4=O | 407 | 380 | 346 | 14.8 | 6.61 | 9.34 |
| Cc1cc(I)ccc1Nc1c(C(=O)NOCC2CC2)cc(F)c(F)c1F | 490 | 445 | 554 | 8.33 | 16.6 | 18.6 |
| CC[C@H]1CN2CCc3cc(OC)c(OC)cc3[C@@H]2C[C@@H]1C[C@H]1NCCc2cc(OC)c(OC)cc21 | 412 | 366 | 463 | 1.66 | 0.59 | 0.934 |
| CN1CCN(c2cc(C(=O)Nc3ccc4c(c3)-c3c(c(C(N)=O)nn3-c3ccc(F)cc3)CC4)c(Cl)cn2)CC1 | 480 | 427 | 521 | 10.5 | 9.34 | 20.9 |
| COc1cc(N2CCN(C)CC2)ccc1Nc1nccc(-c2cn(C)c3cnccc23)n1 | 464 | 451 | 507 | 20.9 | 33.2 | 18.6 |
| C=CC(=O)N1CCC(Oc2cc3c(Nc4ccc(Cl)c(Cl)c4F)ncnc3cc2OC)CC1 | 440 | 400 | 532 | 20.9 | 4.68 | 20.9 |
| CNc1nc(-c2ccc3c(N)n[nH]c3c2)cc(N2C[C@@H](C(=O)NC3CCCCC3)CC[C@H]2C)n1 | 506 | 458 | 544 | 18.6 | 20.9 | 20.9 |
| CCOc1cc(C(=O)N2CCC(N3CCN(C)CC3)CC2)ccc1Nc1ncc2c(n1)N(C1CCCC1)c1ccccc1C(=O)N2C | 448 | 423 | 494 | 18.6 | 18.6 | 18.6 |
| CO/C1=C/C(C)=C\[C@@H](C)[C@@H](O)[C@@H](C)C/C(C)=C\C=C/[C@H](OC)[C@@H]([C@@H](C)[C@@H](O)[C@H](C)[C@@]2(O)C[C@@H](O)[C@H](C)[C@@H](C(C)C)O2)OC1=O | 443 | 388 | 365 | 2.48 | 0.0312 | 0.0393 |
| COc1cc2c(cc1O)CCN[C@]21CS[C@@H]2c3c(OC(C)=O)c(C)c4c(c3[C@H](COC1=O)N1[C@@H]2[C@H]2c3c(cc(C)c(OC)c3O)C[C@@H]([C@@H]1O)N2C)OCO4 | 315 | 285 | 344 | 0.0152 | 0.00855 | 0.0152 |
| CC(=O)O/N=C1\C(=O)N(Cc2cc(Cl)ccc2Cl)c2ccc(Cl)cc21 | 504 | 448 | 382 | 13.2 | 2.09 | 7.42 |
| COc1cc(N2CCC(N(C)C)CC2)ccc1Nc1ncc(Cl)c(Nc2ccccc2P(C)(C)=O)n1 | 426 | 424 | 419 | 3.72 | 7.42 | 5.25 |
| C1CCC(C(CC2CCCCN2)C2CCCCC2)CC1 (configuration not stated) | 414 | 398 | 460 | 9.34 | 8.33 | 11.8 |
| NC(=O)c1cnc(N[C@@H]2CCCC[C@@H]2N)nc1Nc1cccc(-n2nccn2)c1 | 519 | 492 | 572 | 20.9 | 23.5 | 20.9 |
| Cc1cc(Nc2cc(CN3CCOCC3)c3nc(C)c(Cc4ccc(Cl)cc4F)n3n2)[nH]n1 | 420 | 440 | 439 | 23.5 | 37.2 | 18.6 |
| Cc1cc(C[S+](=O)([O-])c2ccccc2)cc(OCc2ccc(CN3CCC[C@@H]3CO)cc2)c1 | 425 | 428 | 463 | 26.3 | 14.8 | 20.9 |
| COc1cc(C(=O)NC2CCN(C)CC2)c(F)cc1Nc1ncc2c(n1)N(C1CCCC1)CC(F)(F)C(=O)N2C | 400 | 412 | 393 | 4.68 | 16.6 | 14.8 |
| O=C1NCCc2[nH]c(-c3ccncc3)cc21 | 423 | 338 | 406 | 4.68 | 3.32 | 1.86 |
| C=CC(=O)Nc1cccc(Nc2nc(Nc3ccc(NC4CN(CCF)C4)cc3OC)ncc2C(F)(F)F)c1 | 446 | 398 | 386 | 8.33 | 9.34 | 14.8 |
| N=c1c2c(-c3ccccc3)c(-c3ccccc3)n(Cc3ccccc3)c2ncn1[C@H]1CC[C@H](O)CC1 | 491 | 341 | 531 | 18.6 | 18.6 | 18.6 |
| CCc1cc(C(N)=O)ccc1-n1nc(C(C)C)c2c(-n3cnc(-c4cnn(C)c4)c3)ccnc21 | 528 | 350 | 543 | 9.34 | 13.2 | 6.61 |
| CNCCCC12CCC(c3ccccc31)c1ccccc12 | 464 | 488 | 564 | 16.6 | 23.5 | 23.5 |

| SMILES | area under concentration-response curve (NCI-H295R [1]) | area under concentration-response curve (CU-ACC1 [2]) | area under concentration-response curve (CU-ACC2 [3]) | AC50 viability (NCI-H295R [4]) [µM] | AC50 viability (CU-ACC1 [5]) [µM] | AC50 viability (CU-ACC2 [6]) [µM] |
| --- | --- | --- | --- | --- | --- | --- |
| NC1(Cc2ccc(Cl)cc2)CCN(c2ncnc3[nH]ccc23)CC1 | 461 | 444 | 540 | 14.8 | 16.6 | 18.6 |
| CCCCC(=O)OCC(=O)[C@]1(O)Cc2c(O)c3c(c(O)c2[C@@H](O[C@H]2C[C@H](NC(=O)C(F)(F)F)[C@H](O)[C@H](C)O2)C1)C(=O)c1c(OC)cccc1C3=O | 537 | 373 | 544 | 16.6 | 7.42 | 9.34 |
| Fc1cccc(-n2cnc3c(NCc4nc5ccc(F)c(F)c5[nH]4)nc(N4CCOCC4)nc32)c1 | 394 | 367 | 371 | 1.05 | 0.661 | 0.742 |
| CC1(C)CC\C2=C(/O1)C3=C(C=CC=C3)C(=O)C2=O | 535 | 333 | 515 | 33.2 | 6.61 | 16.6 |
| O=C1NC(=O)/C(=C/c2ccc3nccc(-c4ccncc4)c3c2)S1 | 393 | 412 | 480 | 1.32 | 1.32 | 1.18 |
| CC(=O)c1cc2c(o1)C(=O)c1ccccc1C2=O | 351 | 270 | 377 | 0.934 | 0.263 | 1.66 |
| CCCc1cc(C(=O)N[C@H](Cc2ccc(-c3cccc(OC(F)(F)F)c3)nc2)C(=O)N[C@@H]2CCNC2)sc1C | 469 | 452 | 447 | 18.6 | 13.2 | 18.6 |
| Cc1ccc2nc(NCCN)c3ncc(C)n3c2c1 | 423 | 413 | 369 | 14.8 | 14.8 | 10.5 |
| CC1(C)CC(=O)c2c(C(F)(F)F)nn(-c3ccc(C(N)=O)c(NC4CCC(O)CC4)c3)c2C1 (configuration not stated) | 455 | 359 | 416 | 0.833 | 1.05 | 0.295 |
| CC[C@@H](C)Nc1cc(C(=O)NC2CC3CC[C@@H](C2)N3c2ccc(C(=O)C3CC3)cn2)c(C)cc1C(N)=O (some centres not stated) | 408 | 330 | 405 | 0.59 | 0.59 | 0.118 |
| CC(N[C@H]1CCCC[C@@H]1NC(=O)c1ccc(Cl)cc1)c1cccc2ccccc12 (some centres not stated) | 422 | 432 | 550 | 18.6 | 33.2 | 23.5 |
| CCN1CCN(C(=O)Cc2ccc(Nc3ncc(F)c(Nc4ccc(C(=O)Nc5ccccc5Cl)cc4)n3)cc2)CC1 | 389 | 412 | 490 | 7.42 | 9.34 | 8.33 |
| CN(C)Cc1c(C(=O)NCCOc2ccc(C(=O)NO)cc2)oc2ccccc12 | 412 | 412 | 425 | 1.32 | 1.48 | 1.48 |
| C=CC(=O)Nc1ccc2ncnc(Nc3cccc(Br)c3)c2c1 | 409 | 360 | 375 | 0.372 | 13.2 | 14.8 |
| C=CC(=O)Nc1cccc(Nc2nc(Nc3ccc(N4CCN(C(C)=O)CC4)cc3OC)ncc2C(F)(F)F)c1 | 362 | 335 | 394 | 5.25 | 4.68 | 3.72 |
| Cn1cc(-c2cnn3c(N)c(Br)c([C@@H]4CCCNC4)nc23)cn1 | 471 | 483 | 568 | 18.6 | 20.9 | 20.9 |
| C[C@@]12OC(=O)[C@@]1(NC(=O)[C@@H]2CCCl)[C@@H](O)[C@H]\3CCC\C=C3 | 435 | 305 | 437 | 0.833 | 0.833 | 1.05 |
| O=C(Nc1c[nH]nc1-c1nc2cc(CN3CCOCC3)ccc2[nH]1)NC1CC1 | 350 | 423 | 386 | 16.6 | 8.33 | 2.63 |
| CC[S+]([O-])(=O)NC1=CC(=C(OC2=C(F)C=C(F)C=C2)C=C1)\C3=C\N(C)C(=O)C4=C3C=C[NH]4 | 463 | 416 | 493 | 5.9 | 10.5 | 13.2 |
| C=CC(=O)Nc1cccc(Oc2nc(Nc3ccc(N4CCN(C)CC4)cc3)nc3ccsc23)c1 | 337 | 277 | 330 | 5.9 | 5.9 | 8.33 |
| C=CCNC1=C2CC(C)CC(OC)C(O)C(C)/C=C(\C)C(OC(N)=O)C(OC)/C=C/C=C(\C)C(=O)NC(=CC1=O)C2=O (configuration not stated) | 491 | 410 | 480 | 10.5 | 3.32 | 1.18 |
| CNc1nccc(-c2cccnc2Oc2cc(C(=O)Nc3cccc(C(F)(F)F)c3)ccc2C)n1 | 465 | 461 | 494 | 18.6 | 14.8 | 18.6 |
| Cc1nc(Nc2n[nH]c3c2CN(C(=O)N[C@H](CN(C)C)c2ccccc2)C3(C)C)c2sccc2n1 | 462 | 433 | 442 | 9.34 | 9.34 | 5.25 |
| COc1cc(OCc2cccc(-c3ccccc3)c2C)cc(OC)c1CN1CCCC[C@H]1C(=O)O | 514 | 444 | 546 | 18.6 | 16.6 | 20.9 |
| COc1ccc(-c2cc(C(O)C3CCCCN3)c3ccccc3n2)cc1 (configuration not stated) | 455 | 432 | 377 | 7.42 | 10.5 | 14.8 |
| Clc1ccc(C(c2ccc(Cl)cc2)[n+]2ccn(CC(OCc3ccc(Cl)cc3Cl)c3ccc(Cl)cc3Cl)c2)cc1 (configuration not stated) | 445 | 442 | 528 | 8.33 | 13.2 | 11.8 |
